Here are results for one compound from US9005608B2, “Stabilized solubility-enhanced formulations for oral delivery” (Adds Pharmaceuticals LLC, priority 2009, dated 2015).

Data set [1] can be described thus: CoQ10 solubility at 37° C. in water and in placebo AQUA Q10 formulation. The class given is physicochemical. Here is the method: CoQ10 solubility was measured at 37° C. in water as well as in a placebo AQUA Q10 formulation, i.e., Incromega™ E3322, Capmul™ CMC C-8, and Cremophor™ EL at weight ratio of 40/25/20.
A short description of data set [2]: CoQ10 solubility/concentration in non-aqueous formulations at elevated temperature. The following applies: for solubility: organic solvent or mixture. The class given is physicochemical. An excerpt:
While not intending to be bound to any theory, we posit that when a poorly water-soluble agent is incorporated into a porous carrier with narrow pores, it experiences strong geometric restrictions and large interfacial interactions with the porous matrix. […] Thus, absorbing a previously solubilized CoQ10 liquid formulation, for example, into the narrow pore channels of Fujicalin® (calcium hydrogen phosphate) inhibits re-crystallization and aggregation of CoQ10. This enables, to a large extent, even dispersion and distribution of pharmaceutically active forms of CoQ10 in solubilized form. After the Fujicalin® porous particulates dissolve in acidic gastric fluid, the SSS is released and the trapped SEF self-emulsifies in the fluid to form droplets of sufficiently small size, thereby facilitating absorption of CoQ10 cross the epithelial cells. Other porous particulates include silicon dioxide and magnesium aluminum metasilicate. Combinations may also be used.
CoQ10 in a concentration of >100 mg/ml in a non-aqueous formulation, preferably SEF, at a temperature above 25° C., preferably at or above 48° C. has been achieved.
The invention formulations solubilize CoQ10 at a concentration of >100 mg/ml at a temperature between 30° C. and 60° C., preferably not above 50° C. In addition, the nutrient/vitamin components readily dissolve in aqueous media, so that >75% of these components are released within an hour.

Molecules are shown by their SMILES. Converted amounts (≈) assume the structure as drawn.

For `COC1=C(OC)C(=O)C(C/C=C(\C)CC/C=C(\C)CC/C=C(\C)CC/C=C(\C)CC/C=C(\C)CC/C=C(\C)CC/C=C(\C)CC/C=C(\C)CC/C=C(\C)CCC=C(C)C)=C(C)C1=O` [CoQ10, Coenzyme Q10], the “CoQ10 solubility in AQUA Q10 formulation relative to solubility in water” value in data set [1] is “over 400,000 times”. Further, the solubility is 177 mg/mL (≈ 205 mM) in data set [1] (placebo AQUA Q10 formulation, oil or lipid, placebo Incromega E3322/Capmul CMC C-8/Cremophor EL 40/25/20, read-out: CoQ10 solubility in AQUA Q10 formulation); 0.0004 mg/mL (≈ 0.000463 mM) in data set [1] (water, read-out: CoQ10 solubility in water); over 100 mg/mL in data set [2] (invention formulations, temperature between 30° C. and 60° C., preferably not above 50° C., read-out: CoQ10 concentration solubilized by the invention formulations); over 100 mg/mL in data set [2] (non-aqueous formulations, elevated temperature close to its melting temperature (48° C.), read-out: solubility of CoQ10 in non-aqueous formulations). Also, the “CoQ10 concentration in a non-aqueous formulation” value in data set [2] (preferably SEF, temperature above 25° C., preferably at or above 48° C.) was over 100 mg/mL.
